Measurements reported in PubChem BioAssay AID248 (DTP/NCI, 2004).
Several values for one entry are separate records, joined by “and”; a condition that tells them apart may be missing. Equal values may be shown once. Toxic doses and inconclusive results are not listed.

Tested on: L1210 leukemia ip in BDF1 mice, survival T/C
Assay: NCI In Vivo Anticancer Drug Screen. Data for tumor model L1210 Leukemia (intraperitoneal) in B6D2F1 (BDF1) mice
Conditions: endpoint: mean survival time, higher = longer survival
Summary of the method: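 Tumor was transplanted into mice, which were then dosed with test compound or vehicle alone. Survival was recorded for each group, and the treated figure was expressed relative to the control figure.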

[1] = dose: 100.0 mg/kg/injection, schedule: Q04DX003 (ip), vehicle: saline
[2] = dose: 200.0 mg/kg/injection, schedule: Q04DX003 (ip), vehicle: saline
[3] = dose: 400.0 mg/kg/injection, schedule: Q04DX003 (ip), vehicle: saline
[4] = dose: 100.0 mg/kg/injection, schedule: Q01DX001 (ip), vehicle: saline
[5] = dose: 200.0 mg/kg/injection, schedule: Q01DX001 (ip), vehicle: saline
[6] = dose: 400.0 mg/kg/injection, schedule: Q01DX001 (ip), vehicle: saline
[7] = dose: 5.0 mg/kg/injection, schedule: Q01DX001 (ip), vehicle: saline
[8] = dose: 10.0 mg/kg/injection, schedule: Q01DX001 (ip), vehicle: saline
[9] = dose: 20.0 mg/kg/injection, schedule: Q01DX001 (ip), vehicle: saline
[10] = dose: 40.0 mg/kg/injection, schedule: Q01DX001 (ip), vehicle: saline
[11] = dose: 50.0 mg/kg/injection, schedule: Q04DX003 (ip), vehicle: saline
[12] = dose: 25.0 mg/kg/injection, schedule: Q01DX009 (ip), vehicle: saline
[13] = dose: 50.0 mg/kg/injection, schedule: Q01DX009 (ip), vehicle: saline

`CCC[CH2][Sn]([Cl])([CH2]CCC)[S]C(=S)NCCNC(=S)[S][Sn]([Cl])([CH2]CCC)[CH2]CCC` was tested. Which T/C (dose: 6.0 mg/kg/injection, schedule: Q04DX002 (ip), vehicle: other) did it give?
The T/C was 98 % of control.

And the T/C (dose: 12.0 mg/kg/injection, schedule: Q04DX002 (ip), vehicle: other)?
The T/C was 117 % of control.

What about the T/C (dose: 25.0 mg/kg/injection, schedule: Q04DX002 (ip), vehicle: other) of the same compound?
The T/C was 102 % of control.

Which results are given for `COc1cc(CC(=O)C(=O)O)oc(=O)c1`?
T/C (dose: 100.0 mg/kg/injection, schedule: Q04DX003 (ip), vehicle: saline with Tween-80): 102 % of control; T/C (dose: 200.0 mg/kg/injection, schedule: Q04DX003 (ip), vehicle: saline with Tween-80): 95 % of control; T/C (dose: 400.0 mg/kg/injection, schedule: Q04DX003 (ip), vehicle: saline with Tween-80): 98 % of control

Which results are given for `Cc1cc(O)c(O)c(S(=O)(=O)c2ccc(N)cc2)c1`?
T/C (dose: 75.0 mg/kg/injection, schedule: Q01DX009 (ip), vehicle: carboxymethylcellulose (CMC)): 93 % of control; T/C (dose: 150.0 mg/kg/injection, schedule: Q01DX009 (ip), vehicle: carboxymethylcellulose (CMC)): 89 % of control; T/C (dose: 300.0 mg/kg/injection, schedule: Q01DX009 (ip), vehicle: carboxymethylcellulose (CMC)): 86 % of control

How did the T/C (dose: 100.0 mg/kg/injection, schedule: Q01DX009 (ip), vehicle: Klucel (hydroxypropylcellulose) (HPC)) turn out when `CC(=O)Nc1ccc(NC(=O)Nc2cccc(Cl)c2C)cc1` was run?
Its T/C is 89 % of control.

And the T/C (dose: 200.0 mg/kg/injection, schedule: Q01DX009 (ip), vehicle: Klucel (hydroxypropylcellulose) (HPC))?
Its T/C is 89 % of control.

And the T/C (dose: 400.0 mg/kg/injection, schedule: Q01DX009 (ip), vehicle: Klucel (hydroxypropylcellulose) (HPC))?
Its T/C is 91 % of control.

With `Cc1ccc(Nc2n[nH]c(=S)s2)cc1F` as the compound, how does the T/C (dose: 75.0 mg/kg/injection, schedule: Q01DX001 (ip), vehicle: other) read?
The T/C was 100 % of control.

What about the T/C (dose: 150.0 mg/kg/injection, schedule: Q01DX001 (ip), vehicle: other) of the same compound?
The T/C was 100 % of control.

And the T/C (dose: 300.0 mg/kg/injection, schedule: Q01DX001 (ip), vehicle: other)?
Its T/C is 100 % of control.

Which T/C (dose: 100.0 mg/kg/injection, schedule: Q01DX001 (ip), vehicle: other) does the source give for `Cc1c(C)c2cc(Br)ccc2[nH]c1=O` here?
Its T/C is 103 % of control.

And the T/C (dose: 200.0 mg/kg/injection, schedule: Q01DX001 (ip), vehicle: other)?
Its T/C is 97 % of control.

What about the T/C (dose: 400.0 mg/kg/injection, schedule: Q01DX001 (ip), vehicle: other) of the same compound?
The T/C was 97 % of control.

What does the source list for `CC(C)C[CH2][Pb]([CH2]CC(C)C)([CH2]CC(C)C)[O]C(=O)C(Cl)(Cl)Cl`?
T/C (dose: 3.12 mg/kg/injection, schedule: Q01DX009 (ip), vehicle: Klucel (hydroxypropylcellulose) (HPC)): 98 % of control; T/C (dose: 3.12 mg/kg/injection, schedule: Q04DX002 (ip), vehicle: Klucel (hydroxypropylcellulose) (HPC)): 96 % of control; T/C (dose: 6.25 mg/kg/injection, schedule: Q01DX009 (ip), vehicle: Klucel (hydroxypropylcellulose) (HPC)): 95 % of control; T/C (dose: 6.25 mg/kg/injection, schedule: Q04DX002 (ip), vehicle: Klucel (hydroxypropylcellulose) (HPC)): 115 % of control; T/C (dose: 12.5 mg/kg/injection, schedule: Q01DX009 (ip), vehicle: Klucel (hydroxypropylcellulose) (HPC)): 98 % of control; T/C (dose: 12.5 mg/kg/injection, schedule: Q04DX002 (ip), vehicle: Klucel (hydroxypropylcellulose) (HPC)): 93 % of control and 87 % of control

How did the T/C (dose: 50.0 mg/kg/injection, schedule: Q01DX009 (ip), vehicle: acetone) turn out when `O=[N+]([O-])c1cc(-c2ccccc2)cc([N+](=O)[O-])c1Cl` was run?
The T/C was 97 % of control.

And the T/C (dose: 100.0 mg/kg/injection, schedule: Q01DX009 (ip), vehicle: acetone)?
The T/C was 100 % of control.

And the T/C [1]?
Its T/C is 96 % of control.

And the T/C (dose: 200.0 mg/kg/injection, schedule: Q01DX009 (ip), vehicle: acetone)?
The T/C was 95 % of control.

What about the T/C [2] of the same compound?
Its T/C is 102 % of control.

What about the T/C [3] of the same compound?
The T/C was 102 % of control.

Which T/C (dose: 2.28 mg/kg/injection, schedule: Q01DX001 (ip), vehicle: carboxymethylcellulose (CMC)) does the source give for `O=NN(CCCl)C(=O)Nc1cccc(Cl)c1` here?
The T/C was 112 % of control.

And the T/C (dose: 4.56 mg/kg/injection, schedule: Q01DX001 (ip), vehicle: carboxymethylcellulose (CMC))?
The T/C was 116 % of control.

What about the T/C (dose: 100.0 mg/kg/injection, schedule: Q01DX001 (ip), vehicle: carboxymethylcellulose (CMC)) of the same compound?
Its T/C is 160 % of control.

What about the T/C (dose: 125.0 mg/kg/injection, schedule: Q01DX001 (ip), vehicle: carboxymethylcellulose (CMC)) of the same compound?
The T/C was 104 % of control.

And the T/C (dose: 150.0 mg/kg/injection, schedule: Q01DX001 (ip), vehicle: carboxymethylcellulose (CMC))?
The T/C was 153 % of control.

What about the T/C (dose: 175.0 mg/kg/injection, schedule: Q01DX001 (ip), vehicle: carboxymethylcellulose (CMC)) of the same compound?
Its T/C is 156 % of control.

How did the T/C [4] turn out when `O=C(O)c1ccc([N+](=O)[O-])cc1Sc1ccsc1` was run?
The T/C was 98 % of control.

And the T/C [5]?
The T/C was 98 % of control.

What about the T/C [6] of the same compound?
Its T/C is 98 % of control.

What does the source list for `Nc1nc(NCCCc2ccccc2)c(N)c(=O)[nH]1`?
T/C (dose: 25.0 mg/kg/injection, schedule: Q01DX009 (ip), vehicle: saline with Tween-80): 94 % of control; T/C (dose: 50.0 mg/kg/injection, schedule: Q01DX009 (ip), vehicle: saline with Tween-80): 92 % of control; T/C (dose: 100.0 mg/kg/injection, schedule: Q01DX009 (ip), vehicle: saline with Tween-80): 92 % of control and 97 % of control

Which results are given for `c1cc[c]([Sn]([O][Sn]([c]2ccccc2)([c]2ccccc2)[c]2ccccc2)([c]2ccccc2)[c]2ccccc2)cc1`?
T/C [7]: 102 % of control; T/C [8]: 100 % of control; T/C [9]: 102 % of control; T/C [10]: 93 % of control

Which results are given for `CCCCN(CCCC)CCN(CCCC)CCN(CCCC)CCCC`?
T/C (dose: 25.0 mg/kg/injection, schedule: Q04DX003 (ip), vehicle: saline): 103 % of control; T/C [11]: 98 % of control; T/C [1]: 98 % of control and 89 % of control

What does the source list for `C=C1C(=O)OC2CC3(C)C(OC(C)=O)CC=C(C)C3C(OC(C)=O)C12` (centres undefined) (tested in a mixture with another compound)?
T/C (dose: 75.0 mg/kg/injection, schedule: Q01DX001 (ip), vehicle: saline): 96 % of control; T/C (dose: 150.0 mg/kg/injection, schedule: Q01DX001 (ip), vehicle: saline): 100 % of control

Which T/C [12] does the source give for `CC1C[N-]1.CC1C[N-]1.[Cl][Pt+2][Cl]` (centres undefined) here?
Its T/C is 102 % of control.

And the T/C [13]?
Its T/C is 103 % of control.

And the T/C [11]?
Its T/C is 95 % of control.

What about the T/C (dose: 100.0 mg/kg/injection, schedule: Q01DX009 (ip), vehicle: saline) of the same compound?
The T/C was 101 % of control.

What about the T/C [1] of the same compound?
The T/C was 98 % of control.

And the T/C [2]?
Its T/C is 98 % of control.

For `CCC[N+](CC)(CC)CCOC(=O)C1C2CC3OC(=O)C1C3C2` (centres undefined), which T/C [1] is on record?
Its T/C is 101 % of control.

`O=C(O)C1(C(=O)O)CC23CCC2(C1)CC(C(=O)O)(C(=O)O)C3` (centres undefined) was tested. Which T/C [1] did it give?
The T/C was 95 % of control.

And the T/C [2]?
Its T/C is 97 % of control.

And the T/C [3]?
The T/C was 103 % of control.

For `Cc1cc(C)nc(/N=N/c2nc(C)cc(C)n2)n1`, which T/C (dose: 55.0 mg/kg/injection, schedule: Q01DX Z (ip), vehicle: saline) is on record?
Its T/C is 95 % of control.

What about the T/C (dose: 83.0 mg/kg/injection, schedule: Q01DX Z (ip), vehicle: saline) of the same compound?
Its T/C is 91 % of control.

And the T/C (dose: 125.0 mg/kg/injection, schedule: Q01DX Z (ip), vehicle: saline)?
Its T/C is 103 % of control.

What does the source list for `CCN(CC)Cc1ccc(C2=NCCO2)cc1`?
T/C (dose: 50.0 mg/kg/injection, schedule: Q01DX001 (ip), vehicle: saline): 91 % of control; T/C [4]: 94 % of control; T/C [5]: 98 % of control

Which results are given for `Nc1nc(N)c(-c2ccc(Cl)cc2)c(CO)n1`?
T/C [4]: 93 % of control; T/C [5]: 104 % of control; T/C [6]: 95 % of control

Which T/C (dose: 100.0 mg/kg/injection, schedule: Q04DX002 (ip), vehicle: Klucel (hydroxypropylcellulose) (HPC)) does the source give for `NC(=O)Nc1ccccc1F` here?
Its T/C is 106 % of control.

And the T/C (dose: 200.0 mg/kg/injection, schedule: Q04DX002 (ip), vehicle: Klucel (hydroxypropylcellulose) (HPC))?
The T/C was 100 % of control.

What about the T/C (dose: 400.0 mg/kg/injection, schedule: Q04DX002 (ip), vehicle: Klucel (hydroxypropylcellulose) (HPC)) of the same compound?
Its T/C is 100 % of control.

`O=C(CCN1CCCC1)c1ccc(F)cc1` was tested. Which T/C [12] did it give?
Its T/C is 109 % of control.

What about the T/C [13] of the same compound?
Its T/C is 115 % of control.

How did the T/C [7] turn out when `CCO/C(=C\[P+](c1ccccc1)(c1ccccc1)c1ccccc1)c1ccccc1` was run?
Its T/C is 90 % of control.

What about the T/C [8] of the same compound?
The T/C was 93 % of control.

And the T/C [9]?
The T/C was 95 % of control.

What about the T/C [10] of the same compound?
Its T/C is 95 % of control.
